In publication PMC6748986, “Potent modulation of the CepR quorum sensing receptor and virulence in a Burkholderia cepacia complex member using non-native lactone ligands” (Scientific Reports, 2019):

target: T1, CepR (Burkholderia cenocepacia, UniProt B4EMD0); assay: CepR agonism in E. coli β-galactosidase reporter (Ec-reporter) JLD271 [pJN105-cepR + pSC11-cepI]; format: cell-based, B. cenocepacia; conditions: Ec-reporter
T1 sequence (B4EMD0 1-239): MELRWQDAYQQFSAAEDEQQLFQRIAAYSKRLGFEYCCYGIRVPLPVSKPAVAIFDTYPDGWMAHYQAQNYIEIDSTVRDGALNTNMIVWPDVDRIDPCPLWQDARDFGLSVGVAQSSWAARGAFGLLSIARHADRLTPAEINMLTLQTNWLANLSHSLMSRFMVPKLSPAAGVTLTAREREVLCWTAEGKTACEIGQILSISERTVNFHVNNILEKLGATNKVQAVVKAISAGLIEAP
Text: (§1) We began our study by screening the AHL library for CepR modulators using an E. coli-based two plasmid reporter system (Ec-reporter)[38]–[40]. Certain members of the Bcc harbor additional QS systems that are either AHL-based (e.g., BviI/BviR in B. vietnamiensis)[41] or diffusible signal factor (DSF)-based (B. cenocepacia)[42], and at least one member of the Bcc has multiple receptors that respond to C8-AHL (e.g., CepR and CepR2 in B. cenocepacia)[43]. Thus, we reasoned that using a CepR reporter in a heterologous background could simplify our initial analyses. We modified our previously reported E. coli-based two plasmid β-galactosidase reporter system to develop a CepR Ec-reporter (see Methods). The first plasmid, pJN105-cepR, contains CepR from B. cenocepacia under the control of the L-arabinose inducible pBAD promoter. A second plasmid contains a transcriptional fusion of lacZ to the cepI promoter region. The two plasmids were co-transformed into a QS mutant E. coli strain (JLD271 ∆sdiA) that lacks its LuxR-type receptor, SdiA. Using this reporter system, if an exogenously -added compound is able to interact with CepR, this will affect the protein’s interaction with the cepI promoter region and alter β-galactosidase production. Enzyme production, and thereby CepR activity, is then measurable via the degradation of a colorimetric substrate for β-galactosidase. Using this new Ec-reporter, we observed robust activity of CepR in response to its native ligand C8-AHL, with an EC50 of 5 nM (Table 1).
We used the CepR Ec-reporter to perform a primary agonism screen at a single compound concentration (100 μM, or its solubility limit, indicated in Table S1). Thirty-one compounds displaying ≥70% agonistic activity in CepR (relative to C8-AHL) were identified and subjected to dose-response analyses using the Ec-reporter (Table I; see Table S2 for complete screening data and Fig. S3 for dose-response curves).
(§2) E. coli β-galactosidase reporter assays (derived from ref.[63]) and reagents used to obtain primary screening and dose-response data were performed as previously described[22],[60],[64], with the following modifications: E. coli JLD271 (∆sdiA) was co-transformed iteratively with pSC11-cepI and pJN105-cepR via electroporation. A single colony was used to start overnight cultures in LB medium + ampicillin (100 μg/mL) + gentamicin (15 μg/mL). A 1:10 dilution of overnight culture was grown in fresh medium to OD600 = 0.25. A sterile solution of L-arabinose in water (27 mM final concentration) was added to induce protein expression, after which cells were plated in 96-well plates containing varying concentrations of compound (200 μL total volume).
(§3) Cells were grown for 4 h, OD600 was read, 50 μL aliquots from each well were permeabilized in 200 μL Z Buffer, and then 150 μL of this mixture used to measure the cleavage of 25 μL of 4 mg/mL CPRG in phosphate buffered saline (PBS) at 37 °C until positive control wells developed a deep red color (~30 min). For all agonism assays, synthetic compound (100 μM) was screened alongside and compared to the native ligand, C8-AHL (100 μM). For all primary and dose-response antagonism assays, the concentration of native ligand utilized was 10 nM (approximately equal to twice its EC50 value). […] At least 3 separate trials were performed using unique cultures on separate days.

Compound	CepR agonism in words
CCCCCC(=O)CC(=O)N[C@@H]1CCOC1=O [D-3’O-C8-AHL]	inactive

same assay, conditions: Ec-reporter, agonism dose-response

Compound	EC50
CCCCCC(=O)CC(=O)N[C@@H]1CCOC1=O [D-3’O-C8-AHL]	≥ 27000 nM

same assay, conditions: Ec-reporter; activity for 100 μM C8-AHL set to 100%; error ±10%

Compound	Maximal Activation (%)
CCCCCC(=O)CC(=O)N[C@@H]1CCOC1=O [D-3’O-C8-AHL]	85%

same assay, conditions: Table S2, Ec-reporter

Compound	EC50
CCOc1ccc(C(=O)N[C@H]2CCOC2=O)cc1 [Compound R1]	180 nM

same assay, conditions: Table S2, Ec-reporter; screening conc. 50 μM

Compound	Act%
CCCCCCCCCC(=O)CC(=O)NCCc1ccccc1 [Compound F50]	12%

same assay, conditions: Table S2, Ec-reporter; screening conc. 100 μM

Compound	Act%
O=C(Cc1ccc(-c2ccccc2)cc1)NC1CCSC1=O (stereo not drawn) [Compound F13]	35%
O=C(Cc1ccccc1)NC1CCCC1 [Compound F16]	7.4%
O=C(Cc1cccc([N+](=O)[O-])c1)NC1CCCC1 [Compound F18]	1.0%
O=C(Cc1ccc(-c2ccccc2)cc1)NC1CCCC1 [Compound F20]	0.5%
O=C(CCCc1c[nH]c2ccccc12)NC1CCCC1 [Compound F21]	-4.0%
O=C(Cc1cccc([N+](=O)[O-])c1)Nc1ccccc1 [Compound F25]	3.0%
CCCCCCCCCC(=O)CC(=O)NCc1ccccc1F [Compound F26]	-1.2%
CCCCCCCCCC(=O)CC(=O)NCc1ccc(OC)cc1 [Compound F31]	7.6%
O=C(Cc1cccc([N+](=O)[O-])c1)Nc1cccc([N+](=O)[O-])c1 [Compound F55]	25%
O=C(CC(O)Cc1cccc(I)c1)N[C@H]1CCOC1=O (stereo partly drawn) [Compound H15]	2.6%
O=C(CC(=O)N[C@H]1CCOC1=O)Cc1cccc(Cl)c1 [Compound H23]	53%
O=C(N[C@H]1CCOC1=O)c1ccccc1Br [Compound Q1]	5.8%
O=C(N[C@H]1CCOC1=O)c1cccc(Br)c1 [Compound Q2]	4.9%
O=C(N[C@H]1CCOC1=O)c1ccc(F)cc1 [Compound Q3]	11%
O=C(N[C@H]1CCOC1=O)c1ccc(Cl)cc1 [Compound Q4]	49%
O=C(N[C@H]1CCOC1=O)c1ccc(I)cc1 [Compound Q5]	78%
COc1ccc(C(=O)N[C@H]2CCOC2=O)cc1 [Compound Q6]	25%

Compound	Act%
O=C(N[C@H]1CCOC1=O)c1ccc([N+](=O)[O-])cc1 [Compound Q7]	10%
Cc1ccc(C(=O)N[C@H]2CCOC2=O)cc1 [Compound Q8]	19%
CCCCCCCCOc1ccc(C(=O)N[C@H]2CCOC2=O)cc1 [Compound Q9]	62%
O=C(N[C@H]1CCOC1=O)c1ccc(Oc2ccc(Br)cc2)cc1 [Compound Q10]	64%
O=C(N[C@H]1CCOC1=O)c1ccc2c(c1)OCO2 [Compound Q11]	6.9%
O=C(N[C@H]1CCOC1=O)c1ccc(-c2ccccc2)cc1 [Compound Q12]	111%
CC(C)(C)OC(=O)c1ccc(C(=O)N[C@H]2CCOC2=O)cc1 [Compound Q13]	6.8%
CCOc1ccc(C(=O)N[C@H]2CCOC2=O)cc1 [Compound R1]	99%
CCCCCOc1ccc(C(=O)N[C@H]2CCOC2=O)cc1 [Compound R5]	95%
O=C(CCCC1CCCCC1)N[C@H]1CCOC1=O [Compound S6]	90%
O=C(CC1CCCCC1)N[C@H]1CCOC1=O [Compound S7]	7.6%
O=C(CCCc1ccccc1)N[C@H]1CCOC1=O [Control 6, reference compound]	80%
CCCCCCCCCC(=O)CC(=O)Nc1cccc(OC)c1 [Control 13, reference compound]	2.0%
CCCCCCCCCC(=O)CC(=O)NC1CCCCC1=O (stereo not drawn) [Control 15, reference compound]	5.2%
CCCCCC(=O)CC(=O)N[C@@H]1CCOC1=O [D-3’O-C8-AHL]	85%
CCCCCCCCCCCCn1nnc(CC(=O)O)n1 [PD-12, reference compound]	-7.6%
O=C(NCc1cc(Br)cc(Br)c1OC(=O)c1ccccc1[N+](=O)[O-])c1ccccc1Cl [TP-1P, reference compound]	54%

same assay, conditions: Table S2, Ec-reporter; screening conc. 100 μM; listed as Co n tro l 5

Compound	Act%
O=C(Cc1ccccc1)N[C@H]1CCOC1=O [Control 5, reference compound]	9.8%

same assay, conditions: Table S2, Ec-reporter; screening conc. 100 μM; listed as V-06-01 8

Compound	Act%
CCCCCCCCCC(=O)CC(=O)Nc1ccccc1 [Compound V-06-018, reference compound]	2.4%

target: T1, CepR; assay: CepR antagonism in E. coli β-galactosidase reporter (Ec-reporter), competition against C8-AHL; format: cell-based, B. cenocepacia; conditions: Ec-reporter
Text: as §1
To identify antagonists of CepR, we screened the AHL library (at 100 μM) in competition against the native ligand C8-AHL (at approximately twice its EC50 value, 0.01 μM) in the Ec-reporter. […] The active compounds were subjected to dose-response analyses in the Ec-reporter to obtain IC50 values and assess their relative potencies (Table 2; see Table S3 for complete screening data and Fig. S3 for dose-response curves). One general trend that we noted at the outset was the majority of the antagonists had acyl tails of similar or shorter overall length than CepR’s native ligand, C8-AHL. From this set, the strongest antagonists could be divided into two classes: (i) “short alkyl tail” AHLs or analogs thereof, and (ii) phenylacetanoyl HLs (PHLs). The discovery that the latter compounds were CepR antagonists was perhaps not surprising, as we have found substituted PHLs to strongly antagonize the majority of the LuxR-type receptors studied in our laboratory to date[22],[24],[29],[45],[46].
as §2, §3

Compound	CepR antagonism in words
O=C(Cc1cccc([N+](=O)[O-])c1)NC1CCCC1 [Compound F18]	dramatic losses in activity
O=C(Cc1cccc([N+](=O)[O-])c1)Nc1ccccc1 [Compound F25]	dramatic losses in activity
O=C(Cc1cccc([N+](=O)[O-])c1)Nc1cccc([N+](=O)[O-])c1 [Compound F55]	dramatic losses in activity

same assay, conditions: Table S3, Ec-reporter; screening conc. 50 μM

Compound	Inh% (100-Act%)
CCCCCCCCCC(=O)CC(=O)NCCc1ccccc1 [Compound F50]	1.0%

same assay, conditions: Table S3, Ec-reporter; screening conc. 100 μM; against 10 nM C8-AHL

Compound	Inh% (100-Act%)
O=C(Cc1ccc(-c2ccccc2)cc1)NC1CCSC1=O (stereo not drawn) [Compound F13]	-20%
O=C(Cc1ccccc1)NC1CCCC1 [Compound F16]	-30%
O=C(Cc1cccc([N+](=O)[O-])c1)NC1CCCC1 [Compound F18]	-20%
O=C(Cc1ccc(-c2ccccc2)cc1)NC1CCCC1 [Compound F20]	-10%
O=C(CCCc1c[nH]c2ccccc12)NC1CCCC1 [Compound F21]	25%
O=C(Cc1cccc([N+](=O)[O-])c1)Nc1ccccc1 [Compound F25]	12%
CCCCCCCCCC(=O)CC(=O)NCc1ccccc1F [Compound F26]	20%
CCCCCCCCCC(=O)CC(=O)NCc1ccc(OC)cc1 [Compound F31]	21%
O=C(Cc1cccc([N+](=O)[O-])c1)Nc1cccc([N+](=O)[O-])c1 [Compound F55]	13%
O=C(CC(O)Cc1cccc(I)c1)N[C@H]1CCOC1=O (stereo partly drawn) [Compound H15]	18%
O=C(CC(=O)N[C@H]1CCOC1=O)Cc1cccc(Cl)c1 [Compound H23]	-20%
O=C(N[C@H]1CCOC1=O)c1ccccc1Br [Compound Q1]	-30%
O=C(N[C@H]1CCOC1=O)c1cccc(Br)c1 [Compound Q2]	-30%
O=C(N[C@H]1CCOC1=O)c1ccc(F)cc1 [Compound Q3]	17%
O=C(N[C@H]1CCOC1=O)c1ccc(Cl)cc1 [Compound Q4]	-20%
O=C(N[C@H]1CCOC1=O)c1ccc(I)cc1 [Compound Q5]	0.0%
COc1ccc(C(=O)N[C@H]2CCOC2=O)cc1 [Compound Q6]	-20%
O=C(N[C@H]1CCOC1=O)c1ccc([N+](=O)[O-])cc1 [Compound Q7]	28%

Compound	Inh% (100-Act%)
Cc1ccc(C(=O)N[C@H]2CCOC2=O)cc1 [Compound Q8]	-20%
CCCCCCCCOc1ccc(C(=O)N[C@H]2CCOC2=O)cc1 [Compound Q9]	-20%
O=C(N[C@H]1CCOC1=O)c1ccc(Oc2ccc(Br)cc2)cc1 [Compound Q10]	-40%
O=C(N[C@H]1CCOC1=O)c1ccc2c(c1)OCO2 [Compound Q11]	5.0%
O=C(N[C@H]1CCOC1=O)c1ccc(-c2ccccc2)cc1 [Compound Q12]	-70%
CC(C)(C)OC(=O)c1ccc(C(=O)N[C@H]2CCOC2=O)cc1 [Compound Q13]	11%
CCOc1ccc(C(=O)N[C@H]2CCOC2=O)cc1 [Compound R1]	-20%
CCCCCOc1ccc(C(=O)N[C@H]2CCOC2=O)cc1 [Compound R5]	-10%
O=C(CCCC1CCCCC1)N[C@H]1CCOC1=O [Compound S6]	-10%
O=C(CC1CCCCC1)N[C@H]1CCOC1=O [Compound S7]	20%
O=C(Cc1ccccc1)N[C@H]1CCOC1=O [Control 5, reference compound]	11%
O=C(CCCc1ccccc1)N[C@H]1CCOC1=O [Control 6, reference compound]	3.0%
CCCCCCCCCC(=O)CC(=O)Nc1cccc(OC)c1 [Control 13, reference compound]	13%
CCCCCCCCCC(=O)CC(=O)NC1CCCCC1=O (stereo not drawn) [Control 15, reference compound]	29%
CCCCCC(=O)CC(=O)N[C@@H]1CCOC1=O [D-3’O-C8-AHL]	-40%
CCCCCCCCCCCCn1nnc(CC(=O)O)n1 [PD-12, reference compound]	-40%
O=C(NCc1cc(Br)cc(Br)c1OC(=O)c1ccccc1[N+](=O)[O-])c1ccccc1Cl [TP-1P, reference compound]	0.0%

same assay, conditions: Table S3, Ec-reporter; screening conc. 100 μM; against 10 nM C8-AHL; listed as V-06-01 8

Compound	Inh% (100-Act%)
CCCCCCCCCC(=O)CC(=O)Nc1ccccc1 [Compound V-06-018, reference compound]	-20%
